Measurements published in patent US20260103461A1, “ESTROGEN RECEPTOR MODULATORS AND USES THEREOF” (Olema Pharmaceuticals, Inc., priority 2022, published 2026).

Biological target: T1, estrogen receptor (Homo sapiens, UniProt P03372)
T1 construct: endogenous in cells; host or cells: ECC-1 cells
T1 sequence (P03372 1-595): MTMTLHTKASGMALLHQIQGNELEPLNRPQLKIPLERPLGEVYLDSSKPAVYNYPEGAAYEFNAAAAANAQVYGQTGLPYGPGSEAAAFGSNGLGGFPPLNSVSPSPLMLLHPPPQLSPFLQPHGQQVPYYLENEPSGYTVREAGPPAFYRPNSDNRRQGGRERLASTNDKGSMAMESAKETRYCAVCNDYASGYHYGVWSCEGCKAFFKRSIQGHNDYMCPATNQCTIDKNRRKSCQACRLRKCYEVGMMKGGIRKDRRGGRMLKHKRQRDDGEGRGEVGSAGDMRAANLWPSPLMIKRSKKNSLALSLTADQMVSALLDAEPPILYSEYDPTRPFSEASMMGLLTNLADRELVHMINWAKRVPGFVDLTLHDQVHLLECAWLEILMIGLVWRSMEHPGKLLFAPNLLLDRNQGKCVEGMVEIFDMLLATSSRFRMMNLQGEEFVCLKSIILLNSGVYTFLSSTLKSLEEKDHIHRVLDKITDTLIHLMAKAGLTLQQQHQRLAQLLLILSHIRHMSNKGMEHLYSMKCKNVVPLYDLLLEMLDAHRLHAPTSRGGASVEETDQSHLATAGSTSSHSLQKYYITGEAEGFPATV
Assay: AP (alkaline phosphatase) assay in ECC-1 cells, agonist mode and antagonist mode
Assay type: cell-based
Conditions: 3 days, absence of E2 (agonist mode) or 500 pM E2 (antagonist mode), AP activity normalized to 500 pM E2 alone
Protocol: ECC-1 cells were trypsinized and resuspended in hormone-depleted media and plated at a density of 15 k cells per well into a 96-well plate for at least 4 hours. Cells were treated with test compounds in the absence of E2 (for agonist mode) or in the presence of 500 pM E2 (for antagonist mode) for 3 days and plates were subsequently frozen at −80° C. Thawed plates were incubated with a chromogenic substrate of AP, p-nitrophenyl phosphate (Thermo Fisher Scientific), for 40 minutes at 42° C., and absorbances were read at 405 nm. AP activity was normalized to the activity of 500 pM E2 alone.
The compound numbers correspond to the compound numbers of Table 1 and 2. Compounds having an activity designated as “+” provided estrogen receptor agonism having (i) at least 80% increase in the E2-normalized signal in the AP assay (agonist mode) and (ii) no more than 80% reduction in the E2-normalized signal in the AP assay (antagonist mode). Compounds having an activity designated as “++” provided estrogen receptor antagonism having (i) between 10% and 80% increase in the E2-normalized signal in the AP assay (agonist mode) and (ii) between 10% and 80% reduction in the E2-normalized signal in the AP assay (antagonist mode).

Row | SMILES | Activity (estrogen receptor modulation, agonism and antagonism)
1 | CCCN1CC(Oc2ccc([C@@H]3c4[nH]c5ccccc5c4C[C@@H](C)N3CC(C)(C)F)s2)C1 [Example I-1, 3-({5-[(1S,3R)-2-(2-fluoro-2-methylpropyl)-3-methyl-1H,2H,3H,4H,9H-pyrido[3,4-b]indol-1-yl]thiophen-2-yl}oxy)-1-propylazetidine] | ++ (estrogen receptor antagonism having (i) between 10% and 80% increase in the E2-normalized signal in the AP assay (agonist mode) and (ii) between 10% and 80% reduction in the E2-normalized signal in the AP assay (antagonist mode))
2 | C[C@@H]1Cc2c([nH]c3ccccc23)[C@@H](c2ccc(OC3CN(CCCF)C3)s2)N1CC(C)(C)F [Example I-2, 3-({5-[(1S,3R)-2-(2-fluoro-2-methylpropyl)-3-methyl-1H,2H,3H,4H,9H-pyrido[3,4-b]indol-1-yl]thiophen-2-yl}oxy)-1-(3-fluoropropyl)azetidine] | ++ (estrogen receptor antagonism having (i) between 10% and 80% increase in the E2-normalized signal in the AP assay (agonist mode) and (ii) between 10% and 80% reduction in the E2-normalized signal in the AP assay (antagonist mode))
3 | CCCN1CC(Oc2ncc([C@@H]3c4[nH]c5ccccc5c4C[C@@H](C)N3CC(C)(C)F)s2)C1 [Example I-3, 5-[(1S,3R)-2-(2-fluoro-2-methylpropyl)-3-methyl-1H,2H,3H,4H,9H-pyrido[3,4-b]indol-1-yl]-2-[(1-propylazetidin-3-yl)oxy]-1,3-thiazole] | ++ (estrogen receptor antagonism having (i) between 10% and 80% increase in the E2-normalized signal in the AP assay (agonist mode) and (ii) between 10% and 80% reduction in the E2-normalized signal in the AP assay (antagonist mode))
4 | C[C@@H]1Cc2c([nH]c3ccccc23)[C@@H](c2ccc(O[C@H]3CCN(CCCF)C3)s2)N1CC(C)(C)F [Example I-4, (3S)-3-({5-[(1S,3R)-2-(2-fluoro-2-methylpropyl)-3-methyl-1H,2H,3H,4H,9H-pyrido[3,4-b]indol-1-yl]thiophen-2-yl}oxy)-1-(3-fluoropropyl)pyrrolidine] | +++ (estrogen receptor antagonism (i) with pIC50 greater than 7.5 and at least a 10% reduction in the E2-normalized signal in the AP assay (antagonist mode); and no more than 10% increase in E2-normalized signal in the AP assay (agonist mode))
5 | C[C@@H]1Cc2c([nH]c3ccccc23)[C@@H](c2ccc(O[C@@H]3CCN(CCCF)C3)s2)N1CC(C)(C)F [Example I-5, (3R)-3-({5-[(1S,3R)-2-(2-fluoro-2-methylpropyl)-3-methyl-1H,2H,3H,4H,9H-pyrido[3,4-b]indol-1-yl]thiophen-2-yl}oxy)-1-(3-fluoropropyl)pyrrolidine] | + (estrogen receptor agonism having (i) at least 80% increase in the E2-normalized signal in the AP assay (agonist mode) and (ii) no more than 80% reduction in the E2-normalized signal in the AP assay (antagonist mode))
6 | C[C@@H]1Cc2c([nH]c3ccccc23)[C@@H](c2ncc(O[C@H]3CCN(CCCF)C3)s2)N1CC(C)(C)F [Example I-6, 2-[(1S,3R)-2-(2-fluoro-2-methylpropyl)-3-methyl-1H,2H,3H,4H,9H-pyrido[3,4-b]indol-1-yl]-5-{[(3S)-1-(3-fluoropropyl)pyrrolidin-3-yl]oxy}-1,3-thiazole] | ++ (estrogen receptor antagonism having (i) between 10% and 80% increase in the E2-normalized signal in the AP assay (agonist mode) and (ii) between 10% and 80% reduction in the E2-normalized signal in the AP assay (antagonist mode))
7 | C[C@@H]1Cc2c([nH]c3ccccc23)[C@@H](c2ccc(O[C@H]3CCN(CCC(F)F)C3)s2)N1CC(C)(C)F [Example I-8, (1S,3R)-1-(5-(((S)-1-(3,3-difluoropropyl)pyrrolidin-3-yl)oxy)thiophen-2-yl)-2-(2-fluoro-2-methylpropyl)-3-methyl-2,3,4,9-tetrahydro-1H-pyrido[3,4-b]indole] | ++ (estrogen receptor antagonism having (i) between 10% and 80% increase in the E2-normalized signal in the AP assay (agonist mode) and (ii) between 10% and 80% reduction in the E2-normalized signal in the AP assay (antagonist mode))
8 | C[C@@H]1Cc2c([nH]c3ccccc23)[C@@H](c2ncc(OC3CN(CCCF)C3)s2)N1CC(C)(C)F [Example I-9, 2-[(1S,3R)-2-(2-fluoro-2-methyl-propyl)-3-methyl-1,3,4,9-tetrahydropyrido[3,4-b]indol-1-yl]-5-[1-(3-fluoropropyl)azetidin-3-yl]oxy-thiazole] | ++ (estrogen receptor antagonism having (i) between 10% and 80% increase in the E2-normalized signal in the AP assay (agonist mode) and (ii) between 10% and 80% reduction in the E2-normalized signal in the AP assay (antagonist mode))
9 | CCCN1CC[C@@H](Oc2ccc([C@@H]3c4[nH]c5ccccc5c4C[C@@H](C)N3CC(C)(C)F)s2)C1 [Example I-10, (1S,3R)-2-(2-fluoro-2-methyl-propyl)-3-methyl-1-[5-[(3R)-1-propylpyrrolidin-3-yl]oxy-2-thienyl]-1,3,4,9-tetrahydropyrido[3,4-b]indole] | + (estrogen receptor agonism having (i) at least 80% increase in the E2-normalized signal in the AP assay (agonist mode) and (ii) no more than 80% reduction in the E2-normalized signal in the AP assay (antagonist mode))
10 | C[C@@H]1Cc2c([nH]c3ccccc23)[C@@H](c2ncc(O[C@@H]3CCN(CCCF)C3)s2)N1CC(C)(C)F [Example I-11, 2-[(1S,3R)-2-(2-fluoro-2-methyl-propyl)-3-methyl-1,3,4,9-tetrahydropyrido[3,4-b]indol-1-yl]-5-[(3R)-1-(3-fluoropropyl)pyrrolidin-3-yl]oxy-thiazole] | ++ (estrogen receptor antagonism having (i) between 10% and 80% increase in the E2-normalized signal in the AP assay (agonist mode) and (ii) between 10% and 80% reduction in the E2-normalized signal in the AP assay (antagonist mode))
11 | C[C@@H]1Cc2c([nH]c3ccccc23)[C@@H](c2ccc(OC3CN(CCCF)C3)s2)N1CC(F)(F)CO [Example I-12, 2,2-difluoro-3-[(1S,3R)-1-[5-[1-(3-fluoropropyl)azetidin-3-yl]oxy-2-thienyl]-3-methyl-1,3,4,9-tetrahydropyrido[3,4-b]indol-2-yl]propan-1-ol] | +++ (estrogen receptor antagonism (i) with pIC50 greater than 7.5 and at least a 10% reduction in the E2-normalized signal in the AP assay (antagonist mode); and no more than 10% increase in E2-normalized signal in the AP assay (agonist mode))
12 | C[C@@H]1Cc2c([nH]c3ccccc23)[C@@H](c2ccc(O[C@@H]3CCN(CCCF)C3)s2)N1CC(F)(F)CO [Example I-13, 2,2-difluoro-3-[(1S,3R)-1-[5-[(3R)-1-(3-fluoropropyl)pyrrolidin-3-yl]oxy-2-thienyl]-3-methyl-1,3,4,9-tetrahydropyrido[3,4-b]indol-2-yl]propan-1-ol] | +++ (estrogen receptor antagonism (i) with pIC50 greater than 7.5 and at least a 10% reduction in the E2-normalized signal in the AP assay (antagonist mode); and no more than 10% increase in E2-normalized signal in the AP assay (agonist mode))
13 | CCN1CC[C@@H](Oc2ccc([C@@H]3c4[nH]c5ccccc5c4C[C@@H](C)N3CC(C)(C)F)s2)C1 [Example I-14, (1S,3R)-1-[5-[(3R)-1-ethylpyrrolidin-3-yl]oxy-2-thienyl]-2-(2-fluoro-2-methyl-propyl)-3-methyl-1,3,4,9-tetrahydropyrido[3,4-b]indole] | + (estrogen receptor agonism having (i) at least 80% increase in the E2-normalized signal in the AP assay (agonist mode) and (ii) no more than 80% reduction in the E2-normalized signal in the AP assay (antagonist mode))
14 | C[C@@H]1Cc2c([nH]c3ccccc23)[C@@H](c2ccc(O[C@@H]3CCN(CCC(F)F)C3)s2)N1CC(C)(C)F [Example I-15, (1S,3R)-1-[5-[(3R)-1-(3,3-difluoropropyl)pyrrolidin-3-yl]oxy-2-thienyl]-2-(2-fluoro-2-methyl-propyl)-3-methyl-1,3,4,9-tetrahydropyrido[3,4-b]indole] | + (estrogen receptor agonism having (i) at least 80% increase in the E2-normalized signal in the AP assay (agonist mode) and (ii) no more than 80% reduction in the E2-normalized signal in the AP assay (antagonist mode))
